Here are results for 1 compound from US11014908B2, “Chemical compounds” (Pfizer Inc., priority 2018, dated 2021).

For one test, the system named is Hb in mouse whole blood. Nature of the test: Whole blood oxygen affinity assay (Hemox analyzer), mouse blood. To be noted: 1 mM compound, 1 hour at 25 C, relative to DMSO. The text has this:
(§1) Whole Blood Oxygen Affinity Assay
(§2) Oxygen affinity is a marker of the ability of Hb to bind and release oxygen in solution. It can be determined in whole blood by measuring the percentage of oxygenated and deoxygenated Hb present at a given oxygen concentration. Oxygen affinity is expressed as the p50, the partial pressure of oxygen at which 50% of the Hb in solution has oxygen bound, or the p20, the partial pressure of oxygen at which 20% of the Hb in solution has oxygen bound.
(§3) To determine the effects of compounds of the invention on oxygen affinity the p50 and p20 were measured in human, dog, and mouse whole blood using a Hemeox Analyzer (TCS Scientific). The blood was spiked with a compound of the invention to a concentration of 1 mM and incubated for 1 hour at 25 C with constant rotation. A concentration of 1 mM of compound was selected to approximate 20% hemoglobin occupancy in whole blood. Controls with the same concentration of DMSO, but no compound were incubated in the same way at the same time. Following incubation, samples were immediately assayed for oxygen affinity using the Hemox analyzer. […] Once samples had reached an pO2 of >150 torr, the measurement was initiated by switching to N2, and the percent oxyhemoglobin as a function of partial pressure was recorded. The p20 and p50 of each sample were recorded from the instrument readout. […]

The target of another test is human HbA (Homo sapiens, UniProt P68871+P69905). In words: Co-crystallization with HbA. To be noted: 1.85 Å co-crystal structure with human HbA. The text has this:
Co-Crystallization with HbA
The binding of the compound of Example 58 to hemoglobin (Hb) was further investigated through co-crystallization experiments. Given the structural and functional similarity of HbS and HbA, and the large quantity of material needed for structural studies, purified HbA was utilized for these studies.
HbA with Example 58 was crystallized according to published protocols (Lee et al. “Crowning proteins: modulating the protein surface properties using crown ethers”, Angew Chem Int Ed Engl 2014; 53(48):13054-13058). Briefly, 20 mg/mL HbA in 20 mM Tris-HCl (pH 8.0) was mixed with equal volume of 50 mM 18-crown-6 solution and incubated at 20° C. for 20 minutes. Example 58 was then added to a final concentration of 1.5 mM and further incubated for an additional 1 hr. Crystallization was performed at 20° C. using hanging drop vapor diffusion method by mixing equal volumes of protein and reservoir solution containing 0.1 M Tris-HCl (pH 8.0), 0.2 M Li2SO4 and 30-32% PEG 3350. Crystals grew to their maximum size in ˜2 days and the crystals were further soaked overnight with 10 mM Example 58. Diffraction data were collected at the Argonne National Laboratory Advanced Photon Source, beamline 17-ID. The data was processed using autoPROC (Global Phasing Limited) and the structure was solved using 3WHM (PDB code) as a starting model. […]

The target in a further test is T1, Hb in dog whole blood (Canis lupus familiaris, UniProt P60524+P60529).
T1 construct: measured in human, dog, and mouse whole blood; from tissue; host or cells: dog whole blood
Nature of the test: Whole blood oxygen affinity assay (Hemox analyzer), dog blood. To be noted: 1 mM compound, 1 hour at 25 C, relative to DMSO.
Description: as §1, §2, §3

Take `C[C@H](Oc1cc2cc(F)ccc2nc1N)c1nc(O)ccc1-n1cccn1` [Example 58, 6-{(1S)-1-[(2-amino-6-fluoroquinolin-3-yl)oxy]ethyl}-5-(1H-pyrazol-1-yl)pyridin-2-ol]: in the test on Hb in mouse whole blood, the “Reduction in p20 (%) Mouse” value is given as 11 ± 2% and the “Reduction in p50 (%) Mouse” value is 5 ± 3%. Also, the “Hb conformation bound in co-crystal structure” value on human HbA is listed as “binds to the oxygenated (R state) conformation of Hb”. Also, on Hb in dog whole blood, the “Reduction in p20 (%) Dog” value was determined as 10 ± 6% and the “Reduction in p50 (%) Dog” value worked out at 6 ± 6%.
